In US20240246980A1, “MODULATORS OF MAS-RELATED G-PROTEIN RECEPTOR D AND RELATED PRODUCTS AND METHODS” (Escient Pharmaceuticals, Inc., priority 2022, published 2024):

biological target: human MRGPRD (Homo sapiens, UniProt Q8TDS7); assay: MRGPRD antagonist activity, IP-One HTRF assay in CHO cells stably expressing human MRGPRD (versus 100 μM β-Alanine agonist); type: cell-based
Experimental: Chinese Hamster Ovary (CHO) cells stably expressing human MRGPRD (Eurofins, San Diego CA) were plated in a 384-well plate at 20,000 cells per well in 12 μL of Optimem (Fisher Scientific 11-058-021). Plates were kept in the incubator at 37° C. overnight. Antagonists were solubilized at a concentration of 10 mM in DMSO, and the agonists were solubilized to stock concentrations of either 50 mM in H2O (β-Alanine) or 10 mM in DMSO (all others) and then diluted in assay buffer (final concentrations of 5.7 mM Tris-HCl, 43 mM NaCl, 50 mM LiCl, pH=8). The concentration of DMSO was normalized across the plate. Antagonists were added to the plate using a Tecan D300 Digital Dispenser at nanoliter/picoliter volumes and 2 μL of agonists in assay buffer were added to each well for a final assay volume of 14 μL. Plates were covered and incubated for 1 h at 37° C. and then for 1 h at room temperature. IP-1 standards and HTRF detection reagents were added according to an IP-One-Gq Kit purchased from Cisbio (part number 62IPAPEJ) and incubated in the dark for 1 h at room temperature. Assay plates were read on either a Molecular Devices SpectraMax iD5 plate reader or a BMG ClarioStar plate reader. The HTRF ratio was calculated form the raw data and graphed using GraphPad Prism to calculate IC50 values. Data are expressed as average IC50 values and average percent antagonism calculated as a percent of the maximum efficacy response. For these studies, the variability of the data was assessed by determining the standard error of mean (SEM).
The activity ranges are denoted as follows: “+++++” denotes antagonist activity <100 nM; “++++” denotes antagonist activity between 100 and 500 nM; “+++” denotes activity between 500 and 1000 nM; “++” denotes activity between 1000 and 3000 nM; and “+” denotes activity >3000 nM.

Sequence of human MRGPRD (Q8TDS7 whole entry): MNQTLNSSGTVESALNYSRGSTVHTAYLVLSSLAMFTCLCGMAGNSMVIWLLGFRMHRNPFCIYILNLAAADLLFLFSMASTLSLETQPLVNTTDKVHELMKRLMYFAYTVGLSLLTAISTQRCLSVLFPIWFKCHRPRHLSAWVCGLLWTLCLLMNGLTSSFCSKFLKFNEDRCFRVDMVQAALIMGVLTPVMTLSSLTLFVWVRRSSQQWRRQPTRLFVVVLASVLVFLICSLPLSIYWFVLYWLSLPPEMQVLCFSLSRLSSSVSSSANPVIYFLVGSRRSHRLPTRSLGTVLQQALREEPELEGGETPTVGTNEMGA

SMILES | IC50 [µM]
COc1cccc(-c2nc(C3CCCN(C(=O)Nc4ccccc4F)C3)n3ccccc23)c1 (stereo not drawn) [Compound 3-28] | 0.1 to 0.5
COc1cccc(-c2nc([C@H]3CCCN(C(=O)Nc4ccccc4)C3)n3ccccc23)c1 [Compound 3-29] | 1 to 3
COc1cccc(-c2nc(C3CCCN(C(=O)Nc4ccccc4N(C)C)C3)n3ccccc23)c1 (stereo not drawn) [Compound 4-3] | 0.5 to 1
COc1cccc(-c2nc(C3CCCN(C(=O)Nc4ccc(C#N)cc4)C3)n3ccccc23)c1 (stereo not drawn) [Compound 4-4] | 0.5 to 1
COc1cccc(-c2nc(C3CCCN(C(=O)N(C)c4ccccc4)C3)n3ccccc23)c1 (stereo not drawn) [Compound 5-1] | 1 to 3
COc1cccc(-c2nc(C3CCCN(C(=O)N(C)c4ccc(F)cc4)C3)n3ccccc23)c1 (stereo not drawn) [Compound 5-2] | 1 to 3
COc1cccc(-c2nc(C3CCCN(C(=O)Nc4ccc(C)cc4F)C3)n3ccccc23)c1 (stereo not drawn) [Compound 5-3] | 0.5 to 1
COc1cccc(-c2nc(C3CCCN(C(=O)Nc4ccc(C)cc4C)C3)n3ccccc23)c1 (stereo not drawn) [Compound 5-4] | 0.1 to 0.5
COc1cccc(-c2nc(C3CCCN(C(=O)Nc4ccc(C)cc4C)C3)n3ccccc23)c1 (stereo not drawn) [Compound 5-5, N-(2,4-dimethylphenyl)-3-(1-(3-methoxyphenyl)imidazo[1,5-a]pyridin-3-yl)piperidine-1-carboxamide] | 0.1 to 0.5
COc1cccc(-c2nc([C@@H]3CCCN(C(=O)Nc4ccc(CO)cc4)C3)n3ccccc23)c1 [Compound 5-7] | < 0.1
COc1cccc(-c2nc([C@@H]3CCCN(C(=O)Nc4ccc(F)cc4)C3)n3ccccc23)c1 [Compound 5-10] | 0.1 to 0.5
COc1cccc(-c2nc([C@@H]3CCCN(C(=O)Nc4ccccc4OC)C3)n3ccccc23)c1 [Compound 5-11] | 0.1 to 0.5
COc1cccc(-c2nc([C@@H]3CCCN(C(=O)Nc4ccccc4F)C3)n3ccccc23)c1 [Compound 5-12] | < 0.1
COc1cccc(-c2nc([C@@H]3CCCN(C(=O)Nc4ccccc4OC(F)(F)F)C3)n3ccccc23)c1 [Compound 5-13] | 0.5 to 1
CCOc1ccccc1NC(=O)N1CCC[C@@H](c2nc(-c3cccc(OC)c3)c3ccccn23)C1 [Compound 5-14] | 0.1 to 0.5
COc1cccc(-c2nc([C@@H]3CCCN(C(=O)Nc4cccc(C(C)=O)c4)C3)n3ccccc23)c1 [Compound 5-15] | < 0.1
COc1cccc(-c2nc([C@@H]3CCCN(C(=O)Nc4ccc(-n5cccn5)cc4)C3)n3ccccc23)c1 [Compound 5-16] | < 0.1
COc1cccc(-c2nc([C@@H]3CCCN(C(=O)Nc4cccc(C(=O)N(C)C)c4)C3)n3ccccc23)c1 [Compound 5-18] | < 0.1
COc1cccc(-c2nc(C3CCCN(C(=O)Nc4cccc(N(C)C)c4)C3)n3ncccc23)c1 (stereo not drawn) [Compound 5-19] | < 0.1

The next lines start with the values.

IC50 [µM] | SMILES
< 0.1 | COc1cccc(-c2nc([C@@H]3CCCN(C(=O)Nc4ccccc4)C3)n3ccccc23)c1 [Compound 3-27]
0.1 to 0.5 | COc1cccc(-c2nc(C3CCCN(C(=O)Nc4ccc(OC)c(OC)c4)C3)n3ccccc23)c1 (stereo not drawn) [Compound 4-1]
< 0.1 | COc1cccc(-c2nc(C3CCCN(C(=O)Nc4cc(OC)c(OC)c(OC)c4)C3)n3ccccc23)c1 (stereo not drawn) [Compound 4-2, 3-(1-(3-methoxyphenyl)imidazo[1,5-a]pyridin-3-yl)-N-(3,4,5-trimethoxyphenyl)piperidine-1-carboxamide]
< 0.1 | COc1cccc(-c2nn(C3CCCN(C(=O)Nc4ccc(N(C)C)cc4)C3)c3ccccc23)c1 (stereo not drawn) [Compound 5-6]
1 to 3 | COc1cccc(-c2nc(C3CCN(C(=O)Nc4cccc(N(C)C)c4)CC3)n3ccccc23)c1 [Compound 5-8]
> 3 | COc1cccc(-c2nc(C3CCN(C(=O)Nc4ccc(N(C)C)cc4)CC3)n3ccccc23)c1 [Compound 5-9]
< 0.1 | COc1cccc(-c2nc([C@@H]3CCCN(C(=O)NCc4ccc(N(C)C)cc4)C3)n3ccccc23)c1 [Compound 5-17]
< 0.1 | COc1cccc(-c2nc(C3CCCN(C(=O)Nc4ccc(N(C)C)cc4)C3)n3ncccc23)c1 (stereo not drawn) [Compound 5-20]
